Laboratory results from patent US11807644B2 (PMV Pharmaceuticals, Inc., priority 2020, dated 2023).

Molecular target: T1, recombinant His-tag Y220C p53 DBD protein (Homo sapiens, UniProt P04637, Y220C)
T1 construct: recombinant His-tag Y220C p53 DBD protein (amino acids #˜94-312)
Assay: In vitro DNA binding activity assay (TR-FRET): binding of His-tag Y220C p53 DBD to biotin-labeled consensus DNA
Assay type: biochemical
Conditions: SC150 = concentration to increase DNA binding by […], His-tag Y220C p53 DBD, biotin-labeled consensus DNA

Question: `CN1CC[C@@H](F)[C@@H](Nc2cccc3c2cc(-c2noc(CNC(=O)c4ccn(C5(C)CCOCC5)c4)n2)n3CC(F)(F)F)C1` [Compound 419B, N-{[3-(4-{[(3S,4R)-4-fluoro-1-methylpiperidin-3-yl]amino}-1-(2,2,2-trifluoroethyl)-1H-indol-2-yl)-1,2,4-oxadiazol-5-yl]methyl}-1-(4-methyloxan-4-yl)-1H-pyrrole-3-carboxamide] was tested. Which “Y220C SC150 (μM)” value did it give?
Answer: * (* = 0 μM ≤ SC150 < 0.1 μM)

Question: For `O=C(NCc1nc(-c2cc3c(NC4CCN(C5CC5)CC4)cccc3n2CC(F)(F)F)no1)C1CC1` [Compound 164B, N-[(3-{4-[(1-cyclopropylpiperidin-4-yl)amino]-1-(2,2,2-trifluoroethyl)-1H-indol-2-yl}-1,2,4-oxadiazol-5-yl)methyl]cyclopropanecarboxamide], which “Y220C SC150 (μM)” value is on record?
Answer: * (* = 0 μM ≤ SC150 < 0.1 μM)

Question: How did the “Y220C SC150 (μM)” value turn out when `CN1CC[C@@H](Nc2cccc3c2cc(-c2noc(CNC(=O)c4csc(N)c4)n2)n3CC(F)(F)F)[C@@H](F)C1` [Compound 429B, 5-amino-N-{[3-(4-{[(3S,4R)-3-fluoro-1-methylpiperidin-4-yl]amino}-1-(2,2,2-trifluoroethyl)-1H-indol-2-yl)-1,2,4-oxadiazol-5-yl]methyl}thiophene-3-carboxamide] was run?
Answer: * (* = 0 μM ≤ SC150 < 0.1 μM)

Question: With `CN1CCC(Nc2cccc3c2cc(-c2ncc(CNC(=O)c4ccccc4)s2)n3CC(F)(F)F)CC1` [Compound 92B, N-[(2-{4-[(1-methylpiperidin-4-yl)amino]-1-(2,2,2-trifluoroethyl)-1H-indol-2-yl}-1,3-thiazol-5-yl)methyl]benzamide] as the molecule, how does the “Y220C SC150 (μM)” value read?
Answer: ** (** = 0.1 μM ≤ SC150 < 0.5 μM)

Question: Which “Y220C SC150 (μM)” value does the source give for `CN1CC[C@@H](Nc2cccc3c2cc(-c2nc(CNC(=O)C4CC4)cs2)n3CC(F)(F)F)[C@@H](F)C1` (racemic) [Compound 89B, N-{[2-(4-{[(3S,4R)-3-fluoro-1-methylpiperidin-4-yl]amino}-1-(2,2,2-trifluoroethyl)-1H-indol-2-yl)-1,3-thiazol-4-yl]methyl}cyclopropanecarboxamide] here?
Answer: **** (**** = 1 μM ≤ SC150 < 10 μM)

Question: Which “Y220C SC150 (μM)” value does the source give for `CC(=O)NCc1nc(-c2cc3c(N[C@@H]4CCN(C)C[C@@H]4F)cccc3n2CC(F)(F)F)no1` [Compound 228B, N-{[3-(4-{[(3S,4R)-3-fluoro-1-methylpiperidin-4-yl]amino}-1-(2,2,2-trifluoroethyl)-1H-indol-2-yl)-1,2,4-oxadiazol-5-yl]methyl}acetamide] here?
Answer: * (* = 0 μM ≤ SC150 < 0.1 μM)

Question: Which “Y220C SC150 (μM)” value does the source give for `CC(C)C(=O)NCc1nnc(-c2cc3c(NC4CCN(C)CC4)cccc3n2CC(F)(F)F)s1` [Compound 57B, 2-methyl-N-[(5-{4-[(1-methylpiperidin-4-yl)amino]-1-(2,2,2-trifluoroethyl)-1H-indol-2-yl}-1,3,4-thiadiazol-2-yl)methyl]propanamide] here?
Answer: ** (** = 0.1 μM ≤ SC150 < 0.5 μM)

Question: `CN1CC[C@@H](Nc2cccc3c2cc(-c2noc(CNC(=O)c4ccc(C5(CO)CC5)s4)n2)n3CC(F)(F)F)[C@@H](F)C1` [Compound 486B, N-{[3-(4-{[(3S,4R)-3-fluoro-1-methylpiperidin-4-yl]amino}-1-(2,2,2-trifluoroethyl)-1H-indol-2-yl)-1,2,4-oxadiazol-5-yl]methyl}-5-[1-(hydroxymethyl)cyclopropyl]thiophene-2-carboxamide] was tested. Which “Y220C SC150 (μM)” value did it give?
Answer: * (* = 0 μM ≤ SC150 < 0.1 μM)

Question: `Cn1ccc(-c2cc3c(NC4CCS(=O)(=O)CC4)cccc3n2CC(F)(F)F)n1` [Compound 14B, 4-{[2-(1-methyl-1H-pyrazol-3-yl)-1-(2,2,2-trifluoroethyl)-1H-indol-4-yl]amino}-1λ^6-thiane-1,1-dione] was tested. Which “Y220C SC150 (μM)” value did it give?
Answer: **** (**** = 1 μM ≤ SC150 < 10 μM)

Question: How did the “Y220C SC150 (μM)” value turn out when `CN1CC[C@@H](Nc2cccc3c2cc(-c2noc(CNc4cccc5c4cnn5C)n2)n3CC(F)(F)F)[C@@H](F)C1` [Compound 463B, N-{[3-(4-{[(3S,4R)-3-fluoro-1-methylpiperidin-4-yl]amino}-1-(2,2,2-trifluoroethyl)-1H-indol-2-yl)-1,2,4-oxadiazol-5-yl]methyl}-1-methyl-1H-indazol-4-amine] was run?
Answer: * (* = 0 μM ≤ SC150 < 0.1 μM)

Question: With `F[C@H]1CNCC[C@H]1Nc1cccc2c1cc(-c1noc(CNc3cn[nH]c3)n1)n2CC(F)(F)F` [Compound 203B, N-[(3S,4R)-3-fluoropiperidin-4-yl]-2-(5-{[(1H-pyrazol-4-yl)amino]methyl}-1,2,4-oxadiazol-3-yl)-1-(2,2,2-trifluoroethyl)-1H-indol-4-amine] as the molecule, how does the “Y220C SC150 (μM)” value read?
Answer: * (* = 0 μM ≤ SC150 < 0.1 μM)

Question: With `CN1CCC(Nc2cccc3c2cc(-c2nnc(CNC(=O)[C@@H]4C[C@@H]4C(=O)O)s2)n3CC(F)(F)F)CC1` (racemic) [Compound 81B, (+/−)-(1R,2S)-2-{[(5-{4-[(1-methylpiperidin-4-yl)amino]-1-(2,2,2-trifluoroethyl)-1H-indol-2-yl}-1,3,4-thiadiazol-2-yl)methyl]carbamoyl}cyclopropane-1-carboxylic acid] as the molecule, how does the “Y220C SC150 (μM)” value read?
Answer: ** (** = 0.1 μM ≤ SC150 < 0.5 μM)

Question: How did the “Y220C SC150 (μM)” value turn out when `CN1CC[C@@H](Nc2cccc3c2cc(-c2noc(CNC(=O)c4cccc(N5CCCC5)c4)n2)n3CC(F)(F)F)[C@@H](F)C1` [Compound 263B, N-{[3-(4-{[(3S,4R)-3-fluoro-1-methylpiperidin-4-yl]amino}-1-(2,2,2-trifluoroethyl)-1H-indol-2-yl)-1,2,4-oxadiazol-5-yl]methyl}-3-(pyrrolidin-1-yl)benzamide] was run?
Answer: * (* = 0 μM ≤ SC150 < 0.1 μM)

Question: `CN1CC[C@@H](Nc2cccc3c2cc(-c2noc(CNC(=O)c4csc(N5CCCC5)n4)n2)n3CC(F)(F)F)[C@@H](F)C1` [Compound 460B, N-{[3-(4-{[(3S,4R)-3-fluoro-1-methylpiperidin-4-yl]amino}-1-(2,2,2-trifluoroethyl)-1H-indol-2-yl)-1,2,4-oxadiazol-5-yl]methyl}-2-(pyrrolidin-1-yl)-1,3-thiazole-4-carboxamide] was tested. Which “Y220C SC150 (μM)” value did it give?
Answer: * (* = 0 μM ≤ SC150 < 0.1 μM)

Question: How did the “Y220C SC150 (μM)” value turn out when `CN1CC[C@@H](Nc2cccc3c2cc(-c2ccc(CNC(=O)C4CC4)s2)n3CC(F)(F)F)[C@@H](F)C1` (racemic) [Compound 103B, (+/−)-N-{[5-(4-{[(3R,4S)-3-fluoro-1-methylpiperidin-4-yl]amino}-1-(2,2,2-trifluoroethyl)-1H-indol-2-yl)thiophen-2-yl]methyl}cyclopropanecarboxamide] was run?
Answer: * (* = 0 μM ≤ SC150 < 0.1 μM)

Question: How did the “Y220C SC150 (μM)” value turn out when `COCC1(n2ccc(C(=O)NCc3nc(-c4cc5c(N[C@@H]6CCOC[C@@H]6F)cccc5n4CC(F)(F)F)no3)c2)CC1` [Compound 495B, N-{[3-(4-{[(3R,4R)-3-fluorooxan-4-yl]amino}-1-(2,2,2-trifluoroethyl)-1H-indol-2-yl)-1,2,4-oxadiazol-5-yl]methyl}-1-[1-(methoxymethyl)cyclopropyl]-1H-pyrrole-3-carboxamide] was run?
Answer: * (* = 0 μM ≤ SC150 < 0.1 μM)

Question: `CN1CC[C@@H](Nc2cccc3c2cc(-c2nnc(CNC(=O)c4ccn(C5(C)CCOCC5)c4)s2)n3CC(F)(F)F)[C@@H](F)C1` [Compound 287B, N-{[5-(4-{[(3S,4R)-3-fluoro-1-methylpiperidin-4-yl]amino}-1-(2,2,2-trifluoroethyl)-1H-indol-2-yl)-1,3,4-thiadiazol-2-yl]methyl}-1-(4-methyloxan-4-yl)-1H-pyrrole-3-carboxamide] was tested. Which “Y220C SC150 (μM)” value did it give?
Answer: * (* = 0 μM ≤ SC150 < 0.1 μM)

Question: With `CC1(n2ccc(C(=O)NCc3nc(-c4cc5c(N[C@@H]6CCNC[C@@H]6F)cccc5n4CC(F)(F)F)no3)c2)CCOCC1` [Compound 477B, N-{[3-(4-{[(3S,4R)-3-fluoropiperidin-4-yl]amino}-1-(2,2,2-trifluoroethyl)-1H-indol-2-yl)-1,2,4-oxadiazol-5-yl]methyl}-1-(4-methyloxan-4-yl)-1H-pyrrole-3-carboxamide] as the molecule, how does the “Y220C SC150 (μM)” value read?
Answer: * (* = 0 μM ≤ SC150 < 0.1 μM)

Question: How did the “Y220C SC150 (μM)” value turn out when `CN1CC[C@@H](Nc2cccc3c2cc(-c2noc(CNC(=O)[C@H]4C[C@H](C)C4)n2)n3CC(F)(F)F)[C@@H](F)C1` [Compound 212B, (1s,3r)-N-{[3-(4-{[(3S,4R)-3-fluoro-1-methylpiperidin-4-yl]amino}-1-(2,2,2-trifluoroethyl)-1H-indol-2-yl)-1,2,4-oxadiazol-5-yl]methyl}-3-methylcyclobutane-1-carboxamide] was run?
Answer: * (* = 0 μM ≤ SC150 < 0.1 μM)

Question: Which “Y220C SC150 (μM)” value does the source give for `CC(C)(C)n1cc(C(=O)NCc2nc(-c3cc4c(N[C@@H]5CCOC[C@@H]5F)cccc4n3CC(F)(F)F)no2)cn1` [Compound 497B, 1-tert-butyl-N-{[3-(4-{[(3R,4R)-3-fluorooxan-4-yl]amino}-1-(2,2,2-trifluoroethyl)-1H-indol-2-yl)-1,2,4-oxadiazol-5-yl]methyl}-1H-pyrazole-4-carboxamide] here?
Answer: * (* = 0 μM ≤ SC150 < 0.1 μM)

Question: Which “Y220C SC150 (μM)” value does the source give for `CN1CC[C@@H](Nc2cccc3c2cc(-c2cc(CNc4ccc(S(C)(=O)=O)cc4)cs2)n3CC(F)(F)F)[C@@H](F)C1` [Compound 284B, N-[(3S,4R)-3-fluoro-1-methylpiperidin-4-yl]-2-(4-{[(4-methanesulfonylphenyl)amino]methyl}thiophen-2-yl)-1-(2,2,2-trifluoroethyl)-1H-indol-4-amine] here?
Answer: ** (** = 0.1 μM ≤ SC150 < 0.5 μM)

Question: Which “Y220C SC150 (μM)” value does the source give for `CN1CC[C@@H](Nc2cccc3c2cc(-c2noc(CNC(=O)c4ccccc4)n2)n3CC(F)(F)F)[C@@H](F)C1` (racemic) [Compound 172B, (+/−)-N-{[3-(4-{[(3R,4S)-3-fluoro-1-methylpiperidin-4-yl]amino}-1-(2,2,2-trifluoroethyl)-1H-indol-2-yl)-1,2,4-oxadiazol-5-yl]methyl}benzamide] here?
Answer: * (* = 0 μM ≤ SC150 < 0.1 μM)

Question: Which “Y220C SC150 (μM)” value does the source give for `CN1CC[C@@H](Nc2cccc3c2cc(-c2noc(CNC(=O)c4ccn(C5CC(F)(F)C5)c4)n2)n3CC(F)(F)F)[C@@H](F)C1` [Compound 451B, 1-(3,3-difluorocyclobutyl)-N-{[3-(4-{[(3S,4R)-3-fluoro-1-methylpiperidin-4-yl]amino}-1-(2,2,2-trifluoroethyl)-1H-indol-2-yl)-1,2,4-oxadiazol-5-yl]methyl}-1H-pyrrole-3-carboxamide] here?
Answer: * (* = 0 μM ≤ SC150 < 0.1 μM)
